For data set [1], the system named is SARS-CoV-2 (USA-WA1/2020). As to the kind of experiment: microbe, parasite or virus in culture. The data set is classed as cell-based. The note with it: Severe acute respiratory syndrome coronavirus 2, Calu-3, read-out: EC50, SARS-CoV-2 infection.
The test system of data set [2] is SARS-CoV-2 (USA-WA1/2020). As to the kind of experiment: microbe, parasite or virus in culture. The following applies: Severe acute respiratory syndrome coronavirus 2, read-out: EC50, viral replication by plaque assay. The data set is classed as cell-based.
Data set [3] concerns SARS-CoV-2 (USA-WA1/2020). The data set can be described thus: microbe, parasite or virus in culture. The data set is classed as cell-based. The note with it: Severe acute respiratory syndrome coronavirus 2, read-out: EC50, nucleocapsid transcript expression by RT-qPCR. A general note: In qPCR the cycle at which signal appears reflects the starting amount.
Another data set concerns the target ErbB2 (HER2) (Homo sapiens, UniProt P04626). The data set can be described thus: biochemical. The note with it: read-out: ErbB2 activity (%).
For another data set, the target named is ErbB2 (Homo sapiens, UniProt P04626). The data set is classed as cell-based.
ErbB2, sequence (P04626 23-1255): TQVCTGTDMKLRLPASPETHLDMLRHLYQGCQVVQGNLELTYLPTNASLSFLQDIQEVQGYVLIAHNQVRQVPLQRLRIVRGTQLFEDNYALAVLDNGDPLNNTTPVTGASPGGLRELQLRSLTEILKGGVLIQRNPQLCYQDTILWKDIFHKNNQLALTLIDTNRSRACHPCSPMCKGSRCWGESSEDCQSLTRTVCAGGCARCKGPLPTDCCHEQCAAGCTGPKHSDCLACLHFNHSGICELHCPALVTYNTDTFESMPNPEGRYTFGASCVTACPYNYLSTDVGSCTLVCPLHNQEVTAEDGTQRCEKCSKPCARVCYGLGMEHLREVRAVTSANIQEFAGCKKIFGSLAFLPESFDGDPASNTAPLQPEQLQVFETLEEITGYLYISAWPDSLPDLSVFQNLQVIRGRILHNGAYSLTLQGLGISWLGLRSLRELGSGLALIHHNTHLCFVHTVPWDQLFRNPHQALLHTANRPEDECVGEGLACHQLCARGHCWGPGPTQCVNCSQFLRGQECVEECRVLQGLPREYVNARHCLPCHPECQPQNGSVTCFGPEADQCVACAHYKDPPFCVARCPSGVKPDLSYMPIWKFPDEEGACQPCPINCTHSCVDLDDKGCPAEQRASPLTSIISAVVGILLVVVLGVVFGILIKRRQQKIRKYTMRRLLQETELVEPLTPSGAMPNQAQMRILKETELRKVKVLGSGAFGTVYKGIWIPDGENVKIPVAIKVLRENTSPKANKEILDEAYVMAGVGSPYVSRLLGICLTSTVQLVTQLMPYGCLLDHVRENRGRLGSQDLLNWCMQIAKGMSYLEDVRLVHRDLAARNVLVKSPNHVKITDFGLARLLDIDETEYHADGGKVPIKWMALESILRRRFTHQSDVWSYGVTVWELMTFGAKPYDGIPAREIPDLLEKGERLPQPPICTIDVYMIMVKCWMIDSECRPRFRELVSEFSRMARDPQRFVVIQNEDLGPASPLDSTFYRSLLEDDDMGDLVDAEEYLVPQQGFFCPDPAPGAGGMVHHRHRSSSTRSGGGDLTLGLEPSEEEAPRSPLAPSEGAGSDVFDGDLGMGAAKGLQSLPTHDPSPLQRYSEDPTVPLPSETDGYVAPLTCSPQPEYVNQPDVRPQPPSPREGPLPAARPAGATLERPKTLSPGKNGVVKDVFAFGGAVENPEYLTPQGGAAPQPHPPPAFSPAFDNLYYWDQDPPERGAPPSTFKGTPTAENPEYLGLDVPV
The test system of another data set is ErbB4. The data set is classed as cell-based.
In another data set the test system is A549 cells. The following applies: human.
A further data set is described as follows: in vitro. The following applies: human, Huh7 cell viability (%).
Another data set concerns STK10. The following applies: cited from earlier work.

“And” between values parts separate entries of the source, which are not always exact repeats. Identical values can stand only once. Like-named read-outs stand apart in the source and are kept apart here.

Broadly, the EC50 is the concentration at which the effect is half-maximal. Broadly, the viability is a read-out of living cells in per cent, often relative to untreated cells.

ErbB2 (HER2), sequence (P04626 23-1255): as above

Turning to `CS(=O)(=O)CCNCc1ccc(-c2ccc3ncnc(Nc4ccc(OCc5cccc(F)c5)c(Cl)c4)c3c2)o1` [Lapatinib], in data set [1], the EC50 turned out to be 700 nM. Moreover, the EC50 in data set [2] was 400 nM. In addition, in data set [3], the EC50 is under 200 nM. At ErbB2 (HER2), the activity at 0.001 µM stood at 91.6%, the activity at 0.003 µM was 84.5%, the activity at 0.009 µM came to 64% and the activity at 0.247 µM was 14%. Moreover, on ErbB2 (HER2), the activity at 2.222 µM was 3.4%; the activity at 6.667 µM is 2.28%; the activity at 20 µM stood at 2%; the activity at […] was 27.2% and 45.3% and 6.63%. Further, on ErbB2, the “increase in cell surface level of ErbB2” value is on record as “more than 2 fold”. Moreover, in the data set with ErbB4, the “antiviral effect on VEEV (TC-83) upon ectopic expression of WT ErbB4” value was “completely or partially reversed”. Further, the “A549 viability (%)” value in the data set on A549 cells is 103.13%. In “in vitro”, the viability at 0.37 µM turned out to be 103% and the viability at 3.333 µM worked out at 105%. Also, the “Other targets: STK10 (% of control)” value in the data set on STK10 was “RAF1 (0%), STK10 (1.4%), RIPK2 (6.1%), MAP2K5 (12%), SLK (18%)”.

The values are drawn from publication PMC10541190 (The Journal of Clinical Investigation, 2023).
